Results taken from paper PMC5344539, “Nematode neuropeptides as transgenic nematicides” (PLoS Pathogens, 2017).

Legend:
[1] = tested on: G. pallida J2s; test: Plant protection assay, C. reinhardtii secreting uNLPs; assay type: in vivo, Globodera pallida; details: Fig 4C; peptide secreted by transgenic C. reinhardtii culture in tomato invasion arena with 500 J2s; control = 100%; mean
Protocol: (§1) Tomato seeds were sterilised with 2.5% NaOCl for 15 minutes, washed 5 times in ddH20 and germinated on 0.5% Murashige and Skoog plates at 23°C. […] Invasion assays were performed by mixing 500 pre-treated M. incognita or G. pallida J2s with agar slurry and a single tomato seedling (2 days post germination) in a 6 well plate. Assays were left at 23°C for 24 hours in the case of M. incognita and at 18°C for 24 hours in the case of G. pallida under a 16 hour light and 8 hour darkness cycle. Seedlings were stained using acid fuschin [69] and the number of nematodes within the roots counted. At least five seedlings were used for M. incognita infections assays, with at least 15 seedlings used for G. pallida infections assays (due to increased variation).
(§2) B. subtilis were grown overnight in LB media containing ampicillin (100 μg/ml) at 37°C with shaking, and harvested in the log phase of growth determined by measuring OD600nm. Five ml of culture at 0.5 OD was spun down and the pellet mixed with 3 ml of agar slurry and 500 J2s from either G. pallida or M. incognita. C. reinhardtii clones were grown at 23°C with shaking, cultures in the log phase were measured at OD750 and 5 ml of culture at 0.5 OD was pelleted by centrifugation. C. reinhardtii pellets were mixed with 3 ml of agar slurry and 500 J2s from either G. pallida or M. incognita. Plant invasion assays were performed as described above. […]

[2] = tested on: G. pallida J2s; test: Plant protection assay, B. subtilis secreting uNLPs; assay type: in vivo, Globodera pallida; details: Fig 4D; peptide secreted by transgenic B. subtilis culture in tomato invasion arena with 500 J2s; control = 100%; mean
Protocol: as §1, §2

[3] = tested on: M. incognita J2s; test: Plant protection assay, C. reinhardtii secreting uNLPs; assay type: in vivo, Meloidogyne incognita; details: Fig 4A; peptide secreted by transgenic C. reinhardtii culture in tomato invasion arena with 500 J2s; relative to untransformed C. reinhardtii = 100%; mean
Protocol: as §1, §2

[4] = tested on: M. incognita J2s; test: Serotonin-induced stylet thrusting assay; assay type: in vivo, Meloidogyne incognita; details: Fig 1C; J2s incubated in 100 μM uNLP for 24 h; stylet thrusts in 5 mM serotonin, counted 1 min; normalised to control = 100%; mean, at least 30 J2s
Protocol: (§3) Predicted uNLPs from both M. incognita and G. pallida were synthesised by EZBiolab and dissolved into pH adjusted ddH2O to make a 5 mM stock which was aliquoted and stored at -20°C. J2s of both M. incognita and G. pallida were incubated for 24 hours in 200 μl of each peptide in a 24 well plate (SPL Lifesciences, South Korea) at a defined concentration.
Stylet thrusting assays where performed by incubating 100 M. incognita or G. pallida J2s for 15 minute in 5 mM or 2 mM serotonin (Sigma Aldrich, USA), respectively. J2s were placed on a glass slide and stylet thrusts were counted for randomly selected J2s, for 1 minute each. Counts for a given cohort of J2s were taken in a maximum interval of 15 minutes. Longer counting intervals, making for longer serotonin incubations, yielded inconsistent results. At least 30 J2s were counted for each neuropeptide treatment.

[5] = tested on: M. incognita J2s; test: Tomato invasion assay with uNLP pre-treated J2s; assay type: in vivo, Meloidogyne incognita; details: for % Invasion: mean
Protocol: as §3, §1

[6] = tested on: G. pallida J2s; test: Tomato invasion assay with uNLP pre-treated J2s; assay type: in vivo, Globodera pallida; details: 100 μM uNLP, 24 h; tomato cv. Moneymaker; relative to controls
Protocol: as §3, §1

[7] = tested on: S. carpocapsae infective juveniles (IJs); test: S. carpocapsae host-finding assay (non-target); assay type: in vivo, Steinernema carpocapsae; details: Fig 5E; chemotaxis towards insect host Galleria mellonella; 100 IJs incubated 24 h in 100 μM uNLP; n = 5; control 0.2315
Protocol: S. carpocapsae were cultured in Galleria mellonella at 23°C. Infective juveniles (IJs) were collected using a White trap in PBS. Freshly emerged IJs were used for each assay. 100 IJs were incubated for 24 hours in 100 μM of selected uNLPs, and host-finding assays (n = 5) performed as in Morris et al..

Sequence: SFDSFTGPGFTGLD [Mi-NLP-15b, predicted unamidated NLP perfectly conserved between M. incognita and G. pallida; synthesised, also secreted from transgenic microbes]
- % Invasion [1]: 30.95%
- % Invasion [2]: 51.98%
- % Invasion [3]: 10.82%
- % Thrusting [4]: 129.90%
- effect on host invasion (in words) ([5]; 100 μM uNLP, 24 h, tomato cv. Moneymaker, relative to controls): inhibited
- % Invasion ([5]; Fig 1B, 500 J2s incubated in 100 μM uNLP for 24 h, single tomato seedling, 24 h at 23°C, normalised to negative control = 100%): 32.22%
- % Invasion ([5]; Fig 3B, 100 nM peptide, 24 h, control = 100%): 69.90%
- % Invasion ([5]; Fig 3B, 1 µM peptide, 24 h, control = 100%): 59.05%
- % Invasion ([5]; Fig 3B, 10 µM peptide, 24 h, control = 100%): 54.62%
- % Invasion ([5]; Fig 3B, 100 µM peptide, 24 h, control = 100%): 35.06%
- effect on host invasion (in words) [6]: does not inhibit host invasion
- CI score [7]: 0.2225
